From the supplement of paper PMC8882468
± gives the standard deviation of the averaged measurements.

These compounds were tested on HCI-015 (organoid from a triple-negative breast cancer xenograft) (assay: CTG-3D luminescence at 96 h relative to day-0 seeding control (ratio to day 0); higher = more growth / less cytotoxicity; PDxO 3D drug screen, 96 h, CTG-3D normalised to day-0 seeding control.). Conditions: 625 fM; days in culture: 191.

Row | SMILES | CTG-3D luminescence at 96 h
1 | O=C(c1ccc(F)c(F)c1Nc1ccc(I)cc1F)N1CC(O)([C@@H]2CCCCN2)C1 [cobimetinib] | 1.58
2 | C[C@H](NC(=O)CCC(F)(F)F)C(=O)N[C@@H]1C(=O)N(CCO)c2ncccc2-c2ccccc21 [crenigacestat] | 1.32
3 | Cc1cc(Nc2ncc(Cl)c(Nc3ccccc3S(=O)(=O)C(C)C)n2)c(OC(C)C)cc1C1CCNCC1 [ceritinib] | 1.68
4 | CS(=O)(=O)c1ccc(C(=O)Nc2ccc(Cl)c(-c3ccccn3)c2)c(Cl)c1 [vismodegib] | 1.54
5 | NC(=O)c1cccc2cn(-c3ccc([C@@H]4CCCNC4)cc3)nc12 [niraparib] | 1.59

Same assay, conditions: 625 fM; days in culture: 218

Row | SMILES | CTG-3D luminescence at 96 h
6 | C[C@@H]1COCCN1c1cc(C2([S@](C)(=N)=O)CC2)nc(-c2cc[nH]c3nccc2-3)n1 [ceralasertib] | 1.58
7 | CCN1CCN(Cc2ccc(Nc3ncc(F)c(-c4cc(F)c5nc(C)n(C(C)C)c5c4)n3)nc2)CC1 [abemaciclib] | 1.79
8 | NC1(C(=O)N[C@@H](CCO)c2ccc(Cl)cc2)CCN(c2nc[nH]c3nccc2-3)CC1 [capivasertib] | 1.71
9 | CC(C)n1nc(-c2ccc3oc(N)nc3c2)c2c(N)ncnc21 [sapanisertib] | 1.77
10 | O=C(c1ccc(F)c(F)c1Nc1ccc(I)cc1F)N1CC(O)([C@@H]2CCCCN2)C1 [cobimetinib] | 1.64
11 | C[C@H](NC(=O)CCC(F)(F)F)C(=O)N[C@@H]1C(=O)N(CCO)c2ncccc2-c2ccccc21 [crenigacestat] | 1.61
12 | Cc1cc(Nc2ncc(Cl)c(Nc3ccccc3S(=O)(=O)C(C)C)n2)c(OC(C)C)cc1C1CCNCC1 [ceritinib] | 1.61
13 | CS(=O)(=O)c1ccc(C(=O)Nc2ccc(Cl)c(-c3ccccn3)c2)c(Cl)c1 [vismodegib] | 2
14 | NC(=O)c1cccc2cn(-c3ccc([C@@H]4CCCNC4)cc3)nc12 [niraparib] | 1.94

What follows are compounds tested on HCI-023 (organoid from a triple-negative breast cancer xenograft) in the same assay as above. Conditions: 12.5 pM; days in culture: 111.

Row | SMILES | CTG-3D luminescence at 96 h
15 | C[C@@H]1COCCN1c1cc(C2([S@](C)(=N)=O)CC2)nc(-c2cc[nH]c3nccc2-3)n1 [ceralasertib] | 1.26
16 | CCN1CCN(Cc2ccc(Nc3ncc(F)c(-c4cc(F)c5nc(C)n(C(C)C)c5c4)n3)nc2)CC1 [abemaciclib] | 1.62
17 | NC1(C(=O)N[C@@H](CCO)c2ccc(Cl)cc2)CCN(c2nc[nH]c3nccc2-3)CC1 [capivasertib] | 1.51
18 | CC(C)n1nc(-c2ccc3oc(N)nc3c2)c2c(N)ncnc21 [sapanisertib] | 1.32
19 | O=C(c1ccc(F)c(F)c1Nc1ccc(I)cc1F)N1CC(O)([C@@H]2CCCCN2)C1 [cobimetinib] | 1.18
20 | C[C@H](NC(=O)CCC(F)(F)F)C(=O)N[C@@H]1C(=O)N(CCO)c2ncccc2-c2ccccc21 [crenigacestat] | 1.05
21 | Cc1cc(Nc2ncc(Cl)c(Nc3ccccc3S(=O)(=O)C(C)C)n2)c(OC(C)C)cc1C1CCNCC1 [ceritinib] | 1.47
22 | CS(=O)(=O)c1ccc(C(=O)Nc2ccc(Cl)c(-c3ccccn3)c2)c(Cl)c1 [vismodegib] | 1.92
23 | NC(=O)c1cccc2cn(-c3ccc([C@@H]4CCCNC4)cc3)nc12 [niraparib] | 1.92

Same assay, conditions: 12.5 pM; days in culture: 128

Row | SMILES | CTG-3D luminescence at 96 h
24 | C[C@@H]1COCCN1c1cc(C2([S@](C)(=N)=O)CC2)nc(-c2cc[nH]c3nccc2-3)n1 [ceralasertib] | 1.69 ± 0.07
25 | CCN1CCN(Cc2ccc(Nc3ncc(F)c(-c4cc(F)c5nc(C)n(C(C)C)c5c4)n3)nc2)CC1 [abemaciclib] | 1.77 ± 0.48
26 | NC1(C(=O)N[C@@H](CCO)c2ccc(Cl)cc2)CCN(c2nc[nH]c3nccc2-3)CC1 [capivasertib] | 1.4 ± 0.31
27 | CC(C)n1nc(-c2ccc3oc(N)nc3c2)c2c(N)ncnc21 [sapanisertib] | 1.42 ± 0.12
28 | O=C(c1ccc(F)c(F)c1Nc1ccc(I)cc1F)N1CC(O)([C@@H]2CCCCN2)C1 [cobimetinib] | 1.67 ± 0.072
29 | C[C@H](NC(=O)CCC(F)(F)F)C(=O)N[C@@H]1C(=O)N(CCO)c2ncccc2-c2ccccc21 [crenigacestat] | 1.4 ± 0.13
30 | Cc1cc(Nc2ncc(Cl)c(Nc3ccccc3S(=O)(=O)C(C)C)n2)c(OC(C)C)cc1C1CCNCC1 [ceritinib] | 1.39 ± 0.21
31 | CS(=O)(=O)c1ccc(C(=O)Nc2ccc(Cl)c(-c3ccccn3)c2)c(Cl)c1 [vismodegib] | 1.29 ± 0.17
32 | NC(=O)c1cccc2cn(-c3ccc([C@@H]4CCCNC4)cc3)nc12 [niraparib] | 1.57 ± 0.42

Same assay, conditions: 0.00025 µM; days in culture: 111

Row | SMILES | CTG-3D luminescence at 96 h
33 | C[C@@H]1COCCN1c1cc(C2([S@](C)(=N)=O)CC2)nc(-c2cc[nH]c3nccc2-3)n1 [ceralasertib] | 1.25
34 | CCN1CCN(Cc2ccc(Nc3ncc(F)c(-c4cc(F)c5nc(C)n(C(C)C)c5c4)n3)nc2)CC1 [abemaciclib] | 1.22
35 | NC1(C(=O)N[C@@H](CCO)c2ccc(Cl)cc2)CCN(c2nc[nH]c3nccc2-3)CC1 [capivasertib] | 1.39
36 | CC(C)n1nc(-c2ccc3oc(N)nc3c2)c2c(N)ncnc21 [sapanisertib] | 1.65
37 | O=C(c1ccc(F)c(F)c1Nc1ccc(I)cc1F)N1CC(O)([C@@H]2CCCCN2)C1 [cobimetinib] | 1.25
38 | C[C@H](NC(=O)CCC(F)(F)F)C(=O)N[C@@H]1C(=O)N(CCO)c2ncccc2-c2ccccc21 [crenigacestat] | 1.15
39 | Cc1cc(Nc2ncc(Cl)c(Nc3ccccc3S(=O)(=O)C(C)C)n2)c(OC(C)C)cc1C1CCNCC1 [ceritinib] | 1.19
40 | CS(=O)(=O)c1ccc(C(=O)Nc2ccc(Cl)c(-c3ccccn3)c2)c(Cl)c1 [vismodegib] | 1.62
41 | NC(=O)c1cccc2cn(-c3ccc([C@@H]4CCCNC4)cc3)nc12 [niraparib] | 1.44

Same assay, conditions: 0.00025 µM; days in culture: 128

Row | SMILES | CTG-3D luminescence at 96 h
42 | C[C@@H]1COCCN1c1cc(C2([S@](C)(=N)=O)CC2)nc(-c2cc[nH]c3nccc2-3)n1 [ceralasertib] | 1.4 ± 0.051
43 | CCN1CCN(Cc2ccc(Nc3ncc(F)c(-c4cc(F)c5nc(C)n(C(C)C)c5c4)n3)nc2)CC1 [abemaciclib] | 1.494 ± 0.0079
44 | NC1(C(=O)N[C@@H](CCO)c2ccc(Cl)cc2)CCN(c2nc[nH]c3nccc2-3)CC1 [capivasertib] | 1.63 ± 0.23
45 | CC(C)n1nc(-c2ccc3oc(N)nc3c2)c2c(N)ncnc21 [sapanisertib] | 1.44 ± 0.54
46 | O=C(c1ccc(F)c(F)c1Nc1ccc(I)cc1F)N1CC(O)([C@@H]2CCCCN2)C1 [cobimetinib] | 1.44 ± 0.4
47 | C[C@H](NC(=O)CCC(F)(F)F)C(=O)N[C@@H]1C(=O)N(CCO)c2ncccc2-c2ccccc21 [crenigacestat] | 1.35 ± 0.62
48 | Cc1cc(Nc2ncc(Cl)c(Nc3ccccc3S(=O)(=O)C(C)C)n2)c(OC(C)C)cc1C1CCNCC1 [ceritinib] | 1.2 ± 0.45
49 | CS(=O)(=O)c1ccc(C(=O)Nc2ccc(Cl)c(-c3ccccn3)c2)c(Cl)c1 [vismodegib] | 1.4 ± 0.25
50 | NC(=O)c1cccc2cn(-c3ccc([C@@H]4CCCNC4)cc3)nc12 [niraparib] | 1.57 ± 0.046

Same assay, conditions: 0.005 µM; days in culture: 111

Row | SMILES | CTG-3D luminescence at 96 h
51 | C[C@@H]1COCCN1c1cc(C2([S@](C)(=N)=O)CC2)nc(-c2cc[nH]c3nccc2-3)n1 [ceralasertib] | 0.897
52 | CCN1CCN(Cc2ccc(Nc3ncc(F)c(-c4cc(F)c5nc(C)n(C(C)C)c5c4)n3)nc2)CC1 [abemaciclib] | 1.3
53 | NC1(C(=O)N[C@@H](CCO)c2ccc(Cl)cc2)CCN(c2nc[nH]c3nccc2-3)CC1 [capivasertib] | 0.992
54 | CC(C)n1nc(-c2ccc3oc(N)nc3c2)c2c(N)ncnc21 [sapanisertib] | 1.1
55 | O=C(c1ccc(F)c(F)c1Nc1ccc(I)cc1F)N1CC(O)([C@@H]2CCCCN2)C1 [cobimetinib] | 1.15
56 | C[C@H](NC(=O)CCC(F)(F)F)C(=O)N[C@@H]1C(=O)N(CCO)c2ncccc2-c2ccccc21 [crenigacestat] | 1.17
57 | Cc1cc(Nc2ncc(Cl)c(Nc3ccccc3S(=O)(=O)C(C)C)n2)c(OC(C)C)cc1C1CCNCC1 [ceritinib] | 1.18
58 | CS(=O)(=O)c1ccc(C(=O)Nc2ccc(Cl)c(-c3ccccn3)c2)c(Cl)c1 [vismodegib] | 1.41
59 | NC(=O)c1cccc2cn(-c3ccc([C@@H]4CCCNC4)cc3)nc12 [niraparib] | 1.58

Same assay, conditions: 0.005 µM; days in culture: 128

Row | SMILES | CTG-3D luminescence at 96 h
60 | C[C@@H]1COCCN1c1cc(C2([S@](C)(=N)=O)CC2)nc(-c2cc[nH]c3nccc2-3)n1 [ceralasertib] | 1.37 ± 0.11
61 | CCN1CCN(Cc2ccc(Nc3ncc(F)c(-c4cc(F)c5nc(C)n(C(C)C)c5c4)n3)nc2)CC1 [abemaciclib] | 1.47 ± 0.046
62 | NC1(C(=O)N[C@@H](CCO)c2ccc(Cl)cc2)CCN(c2nc[nH]c3nccc2-3)CC1 [capivasertib] | 1.43 ± 0.17
63 | CC(C)n1nc(-c2ccc3oc(N)nc3c2)c2c(N)ncnc21 [sapanisertib] | 0.963 ± 0.052
64 | O=C(c1ccc(F)c(F)c1Nc1ccc(I)cc1F)N1CC(O)([C@@H]2CCCCN2)C1 [cobimetinib] | 1.83 ± 0.48
65 | C[C@H](NC(=O)CCC(F)(F)F)C(=O)N[C@@H]1C(=O)N(CCO)c2ncccc2-c2ccccc21 [crenigacestat] | 1.31 ± 0.068
66 | Cc1cc(Nc2ncc(Cl)c(Nc3ccccc3S(=O)(=O)C(C)C)n2)c(OC(C)C)cc1C1CCNCC1 [ceritinib] | 1.17 ± 0.21
67 | CS(=O)(=O)c1ccc(C(=O)Nc2ccc(Cl)c(-c3ccccn3)c2)c(Cl)c1 [vismodegib] | 1.39 ± 0.23
68 | NC(=O)c1cccc2cn(-c3ccc([C@@H]4CCCNC4)cc3)nc12 [niraparib] | 1.61 ± 0.28

Same assay, conditions: 0.1 µM; days in culture: 111

Row | SMILES | CTG-3D luminescence at 96 h
69 | C[C@@H]1COCCN1c1cc(C2([S@](C)(=N)=O)CC2)nc(-c2cc[nH]c3nccc2-3)n1 [ceralasertib] | 1.31
70 | CCN1CCN(Cc2ccc(Nc3ncc(F)c(-c4cc(F)c5nc(C)n(C(C)C)c5c4)n3)nc2)CC1 [abemaciclib] | 1.11
71 | NC1(C(=O)N[C@@H](CCO)c2ccc(Cl)cc2)CCN(c2nc[nH]c3nccc2-3)CC1 [capivasertib] | 0.931
72 | CC(C)n1nc(-c2ccc3oc(N)nc3c2)c2c(N)ncnc21 [sapanisertib] | 0.701
73 | O=C(c1ccc(F)c(F)c1Nc1ccc(I)cc1F)N1CC(O)([C@@H]2CCCCN2)C1 [cobimetinib] | 1.13
74 | C[C@H](NC(=O)CCC(F)(F)F)C(=O)N[C@@H]1C(=O)N(CCO)c2ncccc2-c2ccccc21 [crenigacestat] | 0.954
75 | Cc1cc(Nc2ncc(Cl)c(Nc3ccccc3S(=O)(=O)C(C)C)n2)c(OC(C)C)cc1C1CCNCC1 [ceritinib] | 1.12
76 | CS(=O)(=O)c1ccc(C(=O)Nc2ccc(Cl)c(-c3ccccn3)c2)c(Cl)c1 [vismodegib] | 1.48
77 | NC(=O)c1cccc2cn(-c3ccc([C@@H]4CCCNC4)cc3)nc12 [niraparib] | 1.16
